Assay results: patent US11208478B2, “Methods of detecting and treating a tumor expressing pT346 PDK1” (The Wistar Institute of Anatomy and Biology, priority 2016, dated 2021)

Tests used:
Type in all cases: cell-based, Human
[1] = test system: mitochondrial Akt; experiment: Akt recruitment to mitochondria in hypoxia, subcellular fractions by Western blotting; settings: PC3 cells, 17-AAG 5 μM for 6 hr, NAC 1 mM, MitoTempo 25 μM
Protocol: FIG. 1 illustrates mitochondrial phosphoproteome in hypoxia. A: Phosphoproteome of prostate adenocarcinoma PC3 cells in hypoxia versus normoxia. Identified phosphosites met a minimum MaxQuant localization probability of 0.75 and a score difference of 5. Fold changes were calculated from the normalized Heavy/Light SILAC ratio. Six Akt target proteins showing increased phosphorylation in hypoxia are indicated. […] B: Ingenuity pathway analysis of mitochondrial phospho- and global proteome in hypoxia. […] D: PC3 cells in normoxia (N) or hypoxia (H) were fractionated in cytosol (Cyto) or mitochondrial (Mito) extracts and analyzed by Western blotting. pAkt, phosphorylated Akt (Ser473). TCE, total cell extracts. E: PC3 cells in hypoxia (H) were exposed to reoxygenation (O2) for the indicated time intervals and analyzed by Western blotting. N, normoxia. F: The indicated subcellular fractions isolated from normoxic (N) or hypoxic (H) PC3 cells were analyzed with an antibody to the Akt consensus phosphorylation site RxRxxS/T (Akt cons Ab) by Western blotting. Mito Sup, supernatant of mitochondrial extracts after preclearing with Akt cons Ab. G: PC3 cells in normoxia (N) or hypoxia (H) were treated with vehicle (Veh) or Hsp90 small molecule inhibitor 17-AAG (5 μM for 6 hr), and cytosolic (Cyto) or mitochondrial (Mito) extracts were analyzed by Western blotting. H: PC3 cells in normoxia (N) or hypoxia (H) were treated with vehicle (Veh), the antioxidant N-acetyl cysteine (NAC, 1 mM) or mitochondria-specific ROS scavenger, MitoTempo (MT, 25 μM), and subcellular fractions were analyzed by Western blotting. See also FIG. 9.
Human prostate adenocarcinoma PC3 and DU145, glioblastoma (GBM) LN229, and breast adenocarcinoma MCF-7 or MDA-231 cells were obtained from the American Type Culture Collection (ATCC, Manassas, Va.), and maintained in culture according to the supplier's specifications. Hypoxic treatment was carried out using an enclosed chamber (BioSpherix) flushed with a nitrogen and CO2 gas. […]

[2] = test system: PC3 cells; experiment: Cell cycle: DNA content by propidium iodide staining and flow cytometry; settings: hypoxia, DCA 10 mM, MK2206 5 μM
Description: FIG. 13, related to FIG. 5, illustrates additional data regarding mitochondrial Akt signaling supports tumor growth in hypoxia in vivo. A: Human intracranial GBM samples (U251 cells) grown in immunocompromised mice were harvested at the indicated time intervals after stereotactic injection, and the number of mitotic cells was quantified. HPF, high-power microscopy field (n=6-7). Mean±SEM. *, p=0.01. B: Human intracranial GBM samples as in (A) were harvested at day 20 after stereotactic injection of U251 cells in immunocompromised mice, and analyzed for expression of HIF1α, phosphorylated PDK1 (pT346 Ab) or phosphorylated PDHE1α by immunohistochemistry. H&E, hematoxylin and eosin. Yellow lines were used to delineate the tumor mass within mice brain. Scale bar, 100 μm. […] C: Quantification of mitotic cells expressing phosphorylated PDK1 (pT346 Ab) in intracranial GBM harvested from immunocompromised mice at the indicated time intervals (n=5-7). […] D: Intracranial GBM samples as in (A) were analyzed for correlation between HIF1α luciferase activity and the number of PDK1-phosphorylated mitotic cells (pT346 Ab). […], 95% C.I.=0.1-0.9; p=0.02. […] E: PC3 cells in normoxia (N) or hypoxia (H) were treated with vehicle (Veh) or small molecule antagonists of PDK1 (DCA, 10 mM) or Akt (MK2206, 5 μM) and analyzed for DNA content by propidium iodide staining and flow cytometry. […]

[3] = test system: cleaved caspase 3; experiment: Cleaved caspase 3 by Western blotting; settings: PC3 cells, hypoxia; MK2206 1 μM, PX-866 10 μM
Protocol: FIG. 6 illustrates mitochondrial Akt regulation of stress signaling in hypoxia. A and B: PC3 cells in normoxia (N) or hypoxia (H) were treated with vehicle (Veh) or MK2206 (1 μM) (A) or transduced with pLKO or PDK1-directed shRNA (B) and analyzed for ROS production by CELLROX Green staining and flow cytometry. Upper panels, representative tracings. Bottom panels, quantification of ROS production under the various conditions tested (n=2). Mean±SD for both datasets. *, p=0.01-0.02; **, p=0.004; ns, not significant. C: The experimental conditions are as in (A) and treated cells were analyzed for cell viability by direct cell counting relative to control (n=3). Mean±SEM. ***, p<0.0001. D: PC3 cells in normoxia (N) or hypoxia (H) were incubated with vehicle (Veh) or small molecule inhibitors of Akt (MK2206, 1 μM) or PI3K (PX-866, 10 μM) and analyzed by Western blotting. E: PC3 cells stably silenced for PDK1 were reconstituted with vector, WT PDK1 or T346A PDK1 mutant and analyzed for cell viability by direct cell counting relative to control (n=3). Mean±SEM. ***, p=0.0002. F and G: PC3 cells in normoxia (N) or hypoxia (H) were transduced with pLKO or PDK1-directed shRNA (F) or control siRNA (Ctrl) or Akt1- or Akt2-directed siRNA (G), and analyzed by Western blotting. […] For all panels, data were analyzed using the two-sided unpaired Student's t test. […]

SMILES	accumulation / recruitment of Akt to mitochondria [1]	also measured
C=CCNC1=C2C[C@@H](C)C[C@H](OC)[C@H](O)[C@@H](C)/C=C(\C)[C@H](OC(N)=O)[C@@H](OC)/C=C\C=C(/C)C(=O)NC(=CC1=O)C2=O [17-AAG, 17-allylaminogeldanamycin]	prevented the accumulation of mitochondrial Akt	
O=C([O-])C(Cl)Cl.[Na+] [DCA, sodium dichloroacetate]		S-phase progression [2]: suppressed S-phase progression; population of tumor cells in G1/sub-G1 phase [2]: increased
CC1(C)CC(NC(=O)C[P+](c2ccccc2)(c2ccccc2)c2ccccc2)CC(C)(C)N1[O] [MitoTempo]	inhibited Akt recruitment to mitochondria	
CC(=O)N[C@@H](CS)C(=O)O [NAC, N-acetyl cysteine]	no effect	
C=CCN(/C=C1/C(=O)O[C@H](COC)[C@@]2(C)C1=C(O)C(=O)C1=C2[C@H](OC(C)=O)C[C@]2(C)C(=O)CC[C@@H]12)CC=C [PX-866]		cleaved caspase 3 (marker of apoptosis) [3]: did not result in caspase activation
